Assay results published in publication PMC11864979, “First-in-class ultralong-target-residence-time p38α inhibitors as a mitosis-targeted therapy for colorectal cancer” (Nature Cancer, 2025).
Read-outs that look alike come from different tables or passages of the source.

Legend:
Assay in all cases: selectivity profiling in a panel of 340 wild-type kinases (Reaction Biology Europe)
Format in all cases: binding
340 wild-type kinases [1] = target: T1, 340 wild-type kinases (Homo sapiens, UniProt Q15303)
T1 construct: purchased Reaction Biology Europe

340 wild-type kinases [2] = target: T2, 340 wild-type kinases (Homo sapiens, UniProt P00519)
T2 construct: purchased Reaction Biology Europe
T2 sequence (P00519 whole entry): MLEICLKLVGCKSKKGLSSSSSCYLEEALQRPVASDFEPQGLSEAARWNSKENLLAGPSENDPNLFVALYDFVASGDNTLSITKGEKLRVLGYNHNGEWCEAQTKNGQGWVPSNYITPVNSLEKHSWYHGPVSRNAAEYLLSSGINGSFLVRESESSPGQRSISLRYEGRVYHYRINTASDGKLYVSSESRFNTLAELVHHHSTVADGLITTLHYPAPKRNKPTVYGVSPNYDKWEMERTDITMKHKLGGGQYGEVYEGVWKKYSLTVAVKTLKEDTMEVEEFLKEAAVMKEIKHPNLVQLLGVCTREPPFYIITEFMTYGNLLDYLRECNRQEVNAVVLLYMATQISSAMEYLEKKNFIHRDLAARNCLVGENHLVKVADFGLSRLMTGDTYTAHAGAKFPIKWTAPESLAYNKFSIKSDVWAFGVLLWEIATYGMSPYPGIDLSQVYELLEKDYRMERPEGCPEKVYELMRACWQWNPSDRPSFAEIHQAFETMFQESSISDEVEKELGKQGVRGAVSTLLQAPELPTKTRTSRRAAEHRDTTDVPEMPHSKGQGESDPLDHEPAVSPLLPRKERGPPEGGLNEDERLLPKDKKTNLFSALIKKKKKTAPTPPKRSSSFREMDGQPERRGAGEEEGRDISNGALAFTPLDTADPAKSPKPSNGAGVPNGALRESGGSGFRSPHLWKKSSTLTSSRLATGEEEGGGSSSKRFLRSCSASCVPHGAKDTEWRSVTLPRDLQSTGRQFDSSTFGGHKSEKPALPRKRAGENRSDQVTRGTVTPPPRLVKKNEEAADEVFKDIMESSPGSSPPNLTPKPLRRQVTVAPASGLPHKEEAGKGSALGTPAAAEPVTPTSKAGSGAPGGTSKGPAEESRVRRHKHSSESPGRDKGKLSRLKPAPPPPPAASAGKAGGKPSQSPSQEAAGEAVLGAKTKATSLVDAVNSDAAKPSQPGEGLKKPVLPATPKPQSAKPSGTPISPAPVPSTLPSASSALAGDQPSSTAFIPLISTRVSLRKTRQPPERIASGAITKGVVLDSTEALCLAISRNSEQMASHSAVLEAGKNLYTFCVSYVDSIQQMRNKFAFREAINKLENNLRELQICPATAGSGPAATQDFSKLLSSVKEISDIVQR

340 wild-type kinases [3] = target: T3, 340 wild-type kinases (Homo sapiens, UniProt P07948)
T3 construct: purchased Reaction Biology Europe
T3 sequence (P07948 whole entry): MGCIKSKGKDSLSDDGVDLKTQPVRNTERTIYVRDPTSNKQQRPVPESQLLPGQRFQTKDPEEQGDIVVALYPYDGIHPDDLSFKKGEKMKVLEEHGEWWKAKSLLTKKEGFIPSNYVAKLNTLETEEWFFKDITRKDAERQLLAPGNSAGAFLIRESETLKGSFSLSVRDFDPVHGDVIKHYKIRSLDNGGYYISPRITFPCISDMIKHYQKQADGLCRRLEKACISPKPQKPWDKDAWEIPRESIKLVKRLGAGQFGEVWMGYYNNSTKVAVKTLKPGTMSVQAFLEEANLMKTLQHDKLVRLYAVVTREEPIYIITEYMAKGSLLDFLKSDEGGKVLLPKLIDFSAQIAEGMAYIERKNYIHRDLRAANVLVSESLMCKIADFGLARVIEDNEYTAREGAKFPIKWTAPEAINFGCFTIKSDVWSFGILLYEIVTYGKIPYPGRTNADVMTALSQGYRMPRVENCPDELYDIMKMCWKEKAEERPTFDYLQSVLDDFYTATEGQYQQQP

340 wild-type kinases [4] = target: T4, 340 wild-type kinases (Homo sapiens, UniProt Q9BQI3)
T4 construct: purchased Reaction Biology Europe
T4 sequence (Q9BQI3 whole entry): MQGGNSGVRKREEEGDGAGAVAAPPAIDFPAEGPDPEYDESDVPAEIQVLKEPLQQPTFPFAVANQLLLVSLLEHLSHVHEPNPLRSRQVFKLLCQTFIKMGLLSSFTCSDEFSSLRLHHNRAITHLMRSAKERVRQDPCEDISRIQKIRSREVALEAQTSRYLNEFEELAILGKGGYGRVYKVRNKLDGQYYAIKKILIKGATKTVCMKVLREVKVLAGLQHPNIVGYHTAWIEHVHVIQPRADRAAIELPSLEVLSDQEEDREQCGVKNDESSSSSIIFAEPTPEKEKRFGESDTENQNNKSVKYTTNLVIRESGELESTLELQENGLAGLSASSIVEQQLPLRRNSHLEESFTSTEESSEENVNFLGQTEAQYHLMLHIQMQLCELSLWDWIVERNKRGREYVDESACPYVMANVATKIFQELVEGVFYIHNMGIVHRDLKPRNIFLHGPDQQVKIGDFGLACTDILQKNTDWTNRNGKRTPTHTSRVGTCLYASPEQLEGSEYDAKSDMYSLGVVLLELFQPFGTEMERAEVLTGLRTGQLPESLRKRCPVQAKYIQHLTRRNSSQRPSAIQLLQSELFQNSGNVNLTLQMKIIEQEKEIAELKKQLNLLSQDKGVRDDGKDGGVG

340 wild-type kinases [5] = target: T5, 340 wild-type kinases (Homo sapiens, UniProt Q9NZJ5)
T5 construct: purchased Reaction Biology Europe
T5 sequence (Q9NZJ5 30-1116): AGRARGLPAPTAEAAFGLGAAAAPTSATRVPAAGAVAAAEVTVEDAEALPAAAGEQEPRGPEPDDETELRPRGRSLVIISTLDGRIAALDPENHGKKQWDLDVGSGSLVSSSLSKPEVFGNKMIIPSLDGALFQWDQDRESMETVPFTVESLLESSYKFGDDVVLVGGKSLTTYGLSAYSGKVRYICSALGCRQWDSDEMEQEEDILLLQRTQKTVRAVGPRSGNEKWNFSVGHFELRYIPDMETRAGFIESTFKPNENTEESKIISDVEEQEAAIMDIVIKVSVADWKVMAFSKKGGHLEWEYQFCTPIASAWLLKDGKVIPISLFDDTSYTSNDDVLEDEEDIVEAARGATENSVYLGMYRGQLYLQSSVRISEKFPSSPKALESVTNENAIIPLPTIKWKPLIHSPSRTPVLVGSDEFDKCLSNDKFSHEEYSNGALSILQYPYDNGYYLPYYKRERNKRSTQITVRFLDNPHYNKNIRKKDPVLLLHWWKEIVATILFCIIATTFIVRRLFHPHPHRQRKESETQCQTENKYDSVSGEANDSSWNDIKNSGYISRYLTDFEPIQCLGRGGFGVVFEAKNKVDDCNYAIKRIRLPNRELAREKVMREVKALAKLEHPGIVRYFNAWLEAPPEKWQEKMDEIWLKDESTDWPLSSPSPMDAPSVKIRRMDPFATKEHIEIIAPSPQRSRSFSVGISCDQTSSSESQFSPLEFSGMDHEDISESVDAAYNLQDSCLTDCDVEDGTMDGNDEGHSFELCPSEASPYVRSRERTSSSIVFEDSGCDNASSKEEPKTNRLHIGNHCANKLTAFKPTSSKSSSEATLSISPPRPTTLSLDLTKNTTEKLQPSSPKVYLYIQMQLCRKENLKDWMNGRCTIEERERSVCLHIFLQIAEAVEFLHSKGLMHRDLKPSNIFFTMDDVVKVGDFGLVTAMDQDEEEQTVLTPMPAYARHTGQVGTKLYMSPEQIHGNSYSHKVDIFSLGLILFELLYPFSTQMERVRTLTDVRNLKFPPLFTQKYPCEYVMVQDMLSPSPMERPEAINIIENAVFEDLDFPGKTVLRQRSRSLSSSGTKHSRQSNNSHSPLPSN

340 wild-type kinases [6] = target: T6, 340 wild-type kinases (Homo sapiens, UniProt Q9H2X6)
T6 construct: purchased Reaction Biology Europe
T6 sequence (Q9H2X6 whole entry): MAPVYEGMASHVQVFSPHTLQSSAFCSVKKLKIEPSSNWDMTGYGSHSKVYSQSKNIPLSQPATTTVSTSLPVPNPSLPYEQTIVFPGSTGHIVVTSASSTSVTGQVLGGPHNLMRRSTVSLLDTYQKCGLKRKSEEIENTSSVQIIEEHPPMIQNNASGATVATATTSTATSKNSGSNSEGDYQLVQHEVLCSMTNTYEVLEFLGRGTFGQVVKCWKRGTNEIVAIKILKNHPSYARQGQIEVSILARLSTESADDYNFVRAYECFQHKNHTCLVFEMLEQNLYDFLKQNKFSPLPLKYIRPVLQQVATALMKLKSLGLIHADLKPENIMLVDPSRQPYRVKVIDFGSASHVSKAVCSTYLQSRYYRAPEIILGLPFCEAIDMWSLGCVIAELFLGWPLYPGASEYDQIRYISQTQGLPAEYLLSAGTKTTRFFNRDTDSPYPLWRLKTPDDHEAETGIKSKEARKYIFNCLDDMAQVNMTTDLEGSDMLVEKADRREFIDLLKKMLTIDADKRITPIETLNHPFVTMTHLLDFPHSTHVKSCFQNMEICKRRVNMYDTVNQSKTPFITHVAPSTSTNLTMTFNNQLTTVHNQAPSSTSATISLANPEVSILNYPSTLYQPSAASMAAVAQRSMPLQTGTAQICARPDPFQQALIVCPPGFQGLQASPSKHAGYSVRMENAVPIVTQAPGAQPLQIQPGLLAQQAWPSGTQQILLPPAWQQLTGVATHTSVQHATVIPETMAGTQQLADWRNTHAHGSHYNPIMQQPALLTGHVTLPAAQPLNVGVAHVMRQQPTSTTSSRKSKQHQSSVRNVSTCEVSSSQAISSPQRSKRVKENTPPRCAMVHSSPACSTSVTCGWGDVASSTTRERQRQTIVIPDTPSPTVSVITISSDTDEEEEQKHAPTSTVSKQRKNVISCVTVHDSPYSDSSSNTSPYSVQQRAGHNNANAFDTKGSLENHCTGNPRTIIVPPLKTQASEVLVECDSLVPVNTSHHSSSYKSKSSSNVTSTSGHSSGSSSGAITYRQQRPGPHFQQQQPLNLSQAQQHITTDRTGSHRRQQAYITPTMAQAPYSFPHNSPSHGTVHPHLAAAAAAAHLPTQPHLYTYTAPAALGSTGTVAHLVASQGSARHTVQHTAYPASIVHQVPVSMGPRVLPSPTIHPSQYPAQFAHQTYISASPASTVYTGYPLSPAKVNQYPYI

340 wild-type kinases [7] = target: T7, 340 wild-type kinases (Homo sapiens, UniProt Q9Y463)
T7 construct: purchased Reaction Biology Europe
T7 sequence (Q9Y463 whole entry): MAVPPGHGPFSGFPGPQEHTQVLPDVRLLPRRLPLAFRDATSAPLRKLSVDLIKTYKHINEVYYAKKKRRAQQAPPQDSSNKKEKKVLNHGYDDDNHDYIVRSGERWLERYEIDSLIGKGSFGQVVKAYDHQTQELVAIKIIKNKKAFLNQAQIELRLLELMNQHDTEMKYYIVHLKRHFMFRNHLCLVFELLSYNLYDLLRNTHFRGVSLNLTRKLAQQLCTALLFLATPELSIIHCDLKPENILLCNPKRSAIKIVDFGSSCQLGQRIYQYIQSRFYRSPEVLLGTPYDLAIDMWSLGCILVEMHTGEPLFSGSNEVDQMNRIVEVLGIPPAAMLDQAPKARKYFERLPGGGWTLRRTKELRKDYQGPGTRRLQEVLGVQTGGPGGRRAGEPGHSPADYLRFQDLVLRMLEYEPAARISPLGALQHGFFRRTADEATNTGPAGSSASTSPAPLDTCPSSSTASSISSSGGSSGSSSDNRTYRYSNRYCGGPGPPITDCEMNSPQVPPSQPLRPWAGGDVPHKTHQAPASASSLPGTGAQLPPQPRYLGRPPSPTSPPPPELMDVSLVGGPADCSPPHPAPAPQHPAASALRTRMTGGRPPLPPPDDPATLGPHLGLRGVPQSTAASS

340 wild-type kinases [8] = target: T8, 340 wild-type kinases (Homo sapiens, UniProt P10721)
T8 construct: purchased Reaction Biology Europe
T8 sequence (P10721 26-976): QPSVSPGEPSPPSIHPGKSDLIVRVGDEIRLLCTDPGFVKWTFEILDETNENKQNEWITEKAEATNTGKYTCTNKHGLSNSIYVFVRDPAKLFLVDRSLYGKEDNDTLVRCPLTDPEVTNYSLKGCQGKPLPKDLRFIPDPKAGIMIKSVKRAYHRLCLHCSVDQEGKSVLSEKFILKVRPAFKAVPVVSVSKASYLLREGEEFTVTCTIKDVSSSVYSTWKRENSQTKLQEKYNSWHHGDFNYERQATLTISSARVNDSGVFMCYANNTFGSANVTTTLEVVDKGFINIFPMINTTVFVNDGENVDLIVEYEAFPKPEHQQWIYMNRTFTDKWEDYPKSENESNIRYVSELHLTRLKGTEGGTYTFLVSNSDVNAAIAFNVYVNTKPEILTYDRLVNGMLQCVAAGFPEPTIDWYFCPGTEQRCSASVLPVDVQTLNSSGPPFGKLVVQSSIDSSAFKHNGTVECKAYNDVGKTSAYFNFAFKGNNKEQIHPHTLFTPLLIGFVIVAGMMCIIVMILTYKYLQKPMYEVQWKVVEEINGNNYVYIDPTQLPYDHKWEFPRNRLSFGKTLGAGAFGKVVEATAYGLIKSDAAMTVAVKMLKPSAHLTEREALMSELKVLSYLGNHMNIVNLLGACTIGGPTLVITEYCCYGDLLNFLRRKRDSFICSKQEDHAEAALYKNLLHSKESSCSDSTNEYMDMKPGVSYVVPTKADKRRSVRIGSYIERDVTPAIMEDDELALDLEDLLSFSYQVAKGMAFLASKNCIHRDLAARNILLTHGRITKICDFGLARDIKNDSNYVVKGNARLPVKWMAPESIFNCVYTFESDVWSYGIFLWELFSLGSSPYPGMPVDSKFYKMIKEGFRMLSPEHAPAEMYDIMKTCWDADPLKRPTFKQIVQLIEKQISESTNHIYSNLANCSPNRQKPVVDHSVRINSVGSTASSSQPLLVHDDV

340 wild-type kinases [9] = target: T9, 340 wild-type kinases (Homo sapiens, UniProt P53778)
T9 construct: purchased Reaction Biology Europe
T9 sequence (P53778 1-367): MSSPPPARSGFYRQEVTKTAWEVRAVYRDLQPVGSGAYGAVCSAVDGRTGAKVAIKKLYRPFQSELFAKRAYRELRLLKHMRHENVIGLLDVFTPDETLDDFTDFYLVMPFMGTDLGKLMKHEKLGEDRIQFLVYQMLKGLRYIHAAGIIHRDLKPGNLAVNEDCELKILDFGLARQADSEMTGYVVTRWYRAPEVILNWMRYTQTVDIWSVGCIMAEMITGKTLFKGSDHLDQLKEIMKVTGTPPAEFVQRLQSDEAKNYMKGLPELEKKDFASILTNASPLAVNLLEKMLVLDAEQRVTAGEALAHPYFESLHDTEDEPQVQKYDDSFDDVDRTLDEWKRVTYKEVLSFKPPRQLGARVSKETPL

SMILES: CNC(=O)c1ccc2c(c1)C(=O)c1ccc(Nc3ccc(F)c(NC(=O)C4CC4)c3)cc1CC2 [Compound 2015]
- remaining activity at 0.2 µM (340 wild-type kinases [1]; 0.2 µM 2015, read-out: ERBB4 residual activity): 120%
- remaining activity at 1 µM (340 wild-type kinases [1]; 1 µM 2015, read-out: ERBB4 residual activity): 101%
- remaining activity at 0.2 µM (340 wild-type kinases [1]; ERBB4, 0.2 µM, read-out: residual activity): 120%
- remaining activity at 1 µM (340 wild-type kinases [1]; ERBB4, 1 µM, read-out: residual activity): 101%
- remaining activity at 0.2 µM (340 wild-type kinases [2]; 0.2 µM 2015, read-out: ABL1 residual activity): 108%
- remaining activity at 1 µM (340 wild-type kinases [2]; 1 µM 2015, read-out: ABL1 residual activity): 99.6%
- remaining activity at 0.2 µM (340 wild-type kinases [2]; ABL1, 0.2 µM, read-out: residual activity): 108%
- remaining activity at 1 µM (340 wild-type kinases [2]; ABL1, 1 µM, read-out: residual activity): 99.6%
- remaining activity at 0.2 µM (340 wild-type kinases [3]; 0.2 µM 2015, read-out: LYN residual activity): 109%
- remaining activity at 1 µM (340 wild-type kinases [3]; 1 µM 2015, read-out: LYN residual activity): 82.5%
- remaining activity at 0.2 µM (340 wild-type kinases [3]; LYN, 0.2 µM, read-out: residual activity): 109%
- remaining activity at 1 µM (340 wild-type kinases [3]; LYN, 1 µM, read-out: residual activity): 82.5%
- remaining activity at 0.2 µM (340 wild-type kinases [4]; 0.2 µM 2015, read-out: HRI residual activity): 75%
- remaining activity at 1 µM (340 wild-type kinases [4]; 1 µM 2015, read-out: HRI residual activity): 93.7%
- remaining activity at 0.2 µM (340 wild-type kinases [4]; HRI, 0.2 µM, read-out: residual activity): 75%
- remaining activity at 1 µM (340 wild-type kinases [4]; HRI, 1 µM, read-out: residual activity): 93.7%
- remaining activity at 1 µM (340 wild-type kinases [5]; 1 µM 2015, read-out: EIF2AK3 residual activity): 86.3%
- remaining activity at 0.2 µM (340 wild-type kinases [5]; EIF2AK3, 0.2 µM, read-out: residual activity): 93.3%
- remaining activity at 1 µM (340 wild-type kinases [5]; EIF2AK3, 1 µM, read-out: residual activity): 86.3%
- remaining activity at 0.2 µM (340 wild-type kinases [6]; 0.2 µM 2015, read-out: HIPK2 residual activity): 93.7%
- remaining activity at 1 µM (340 wild-type kinases [6]; 1 µM 2015, read-out: HIPK2 residual activity): 97.9%
- remaining activity at 0.2 µM (340 wild-type kinases [6]; HIPK2, 0.2 µM, read-out: residual activity): 93.7%
- remaining activity at 1 µM (340 wild-type kinases [6]; HIPK2, 1 µM, read-out: residual activity): 97.9%
- remaining activity at 0.2 µM (340 wild-type kinases [7]; 0.2 µM 2015, read-out: DYRK1B residual activity): 96.9%
- remaining activity at 1 µM (340 wild-type kinases [7]; 1 µM 2015, read-out: DYRK1B residual activity): 94.1%
- remaining activity at 0.2 µM (340 wild-type kinases [7]; DYRK1B, 0.2 µM, read-out: residual activity): 96.9%
- remaining activity at 1 µM (340 wild-type kinases [7]; DYRK1B, 1 µM, read-out: residual activity): 94.1%
- remaining activity at 0.2 µM (340 wild-type kinases [8]; 0.2 µM 2015, read-out: KIT residual activity): 114%
- remaining activity at 1 µM (340 wild-type kinases [8]; 1 µM 2015, read-out: KIT residual activity): 109%
- remaining activity at 0.2 µM (340 wild-type kinases [8]; KIT, 0.2 µM, read-out: residual activity): 114%
- remaining activity at 1 µM (340 wild-type kinases [8]; KIT, 1 µM, read-out: residual activity): 109%
- remaining activity at 0.2 µM (340 wild-type kinases [9]; 0.2 µM 2015, read-out: p38gamma residual activity): 83.5%
- remaining activity at 1 µM (340 wild-type kinases [9]; 1 µM 2015, read-out: p38gamma residual activity): 77.7%
- remaining activity at 0.2 µM (340 wild-type kinases [9]; p38gamma, 0.2 µM, read-out: residual activity): 83.5%
- remaining activity at 1 µM (340 wild-type kinases [9]; p38gamma, 1 µM, read-out: residual activity): 77.7%
